According to PubChem BioAssay AID248 (DTP/NCI, 2004):
“And” between values parts separate entries of the source, which are not always exact repeats. Equal entries are not always repeated. Inconclusive results and toxic doses are left out. Cut-off read from the data, not from the text of the source: active = T/C of 150% or more; inactive = T/C below 125%.

System: L1210 leukemia ip in BDF1 mice, survival T/C
Experiment: NCI In Vivo Anticancer Drug Screen. Data for tumor model L1210 Leukemia (intraperitoneal) in B6D2F1 (BDF1) mice
Settings: endpoint: mean survival time, higher = longer survival
Method in brief: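 Tumor was transplanted into mice, which were then dosed with test compound or vehicle alone. Survival was recorded for each group, and the treated figure was expressed relative to the control figure.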

[1] = dose: 100.0 mg/kg/injection, schedule: Q01DX001 (ip), vehicle: carboxymethylcellulose (CMC)
[2] = dose: 200.0 mg/kg/injection, schedule: Q01DX001 (ip), vehicle: carboxymethylcellulose (CMC)
[3] = dose: 400.0 mg/kg/injection, schedule: Q01DX001 (ip), vehicle: carboxymethylcellulose (CMC)
[4] = dose: 50.0 mg/kg/injection, schedule: Q01DX001 (ip), vehicle: carboxymethylcellulose (CMC)
[5] = dose: 50.0 mg/kg/injection, schedule: Q04DX003 (ip), vehicle: saline
[6] = dose: 100.0 mg/kg/injection, schedule: Q04DX003 (ip), vehicle: saline
[7] = dose: 100.0 mg/kg/injection, schedule: Q01DX001 (ip), vehicle: saline
[8] = dose: 200.0 mg/kg/injection, schedule: Q01DX001 (ip), vehicle: saline
[9] = dose: 100.0 mg/kg/injection, schedule: Q04DX003 (ip), vehicle: Klucel (hydroxypropylcellulose) (HPC)
[10] = dose: 200.0 mg/kg/injection, schedule: Q04DX003 (ip), vehicle: Klucel (hydroxypropylcellulose) (HPC)
[11] = dose: 400.0 mg/kg/injection, schedule: Q04DX003 (ip), vehicle: Klucel (hydroxypropylcellulose) (HPC)
[12] = dose: 100.0 mg/kg/injection, schedule: Q01DX009 (ip), vehicle: Klucel (hydroxypropylcellulose) (HPC)
[13] = dose: 200.0 mg/kg/injection, schedule: Q01DX009 (ip), vehicle: Klucel (hydroxypropylcellulose) (HPC)

Measured: T/C

C1CCC(C2CCCC(C3CCCCC3)C2)CC1 (centres undefined)
inactive: [1] 94 % of control | [2] 96 % of control | [3] 94 % of control

CCCC[S][Pb]([CH2]C)([CH2]C)[CH2]C
inactive: dose: 1.56 mg/kg/injection, schedule: Q01DX009 (sc), vehicle: olive oil, sesame oil, peanut oil 103 % of control | dose: 3.12 mg/kg/injection, schedule: Q01DX009 (sc), vehicle: olive oil, sesame oil, peanut oil 99 % of control | dose: 6.25 mg/kg/injection, schedule: Q01DX009 (sc), vehicle: olive oil, sesame oil, peanut oil 96 % of control and 100 % of control | dose: 12.5 mg/kg/injection, schedule: Q04DX002 (ip), vehicle: saline with Tween-80 111 % of control | dose: 25.0 mg/kg/injection, schedule: Q04DX002 (ip), vehicle: saline with Tween-80 96 % of control

Cc1ccc(NC2=C(Cl)C(=O)C(Nc3ccc(C)cc3)=C(Cl)C2=O)cc1
inactive: [4] 97 % of control | [1] 95 % of control | [2] 90 % of control | [3] 92 % of control

CNC/C=C/CNC
inactive: dose: 25.0 mg/kg/injection, schedule: Q01DX009 (ip), vehicle: saline 97 % of control | dose: 25.0 mg/kg/injection, schedule: Q04DX003 (ip), vehicle: saline 102 % of control | dose: 50.0 mg/kg/injection, schedule: Q01DX009 (ip), vehicle: saline 90 % of control | [5] 93 % of control | dose: 100.0 mg/kg/injection, schedule: Q01DX009 (ip), vehicle: saline 98 % of control | [6] 98 % of control and 99 % of control

COC(=O)/C=C(\C)Nc1ccc(Cc2ccc(NC(C)=O)cc2)cc1
inactive: [7] 95 % of control | [8] 98 % of control

CCCCOc1c(Cl)c(Cl)c(O)c(Cl)c1Cl
inactive: dose: 50.0 mg/kg/injection, schedule: Q01DX009 (ip), vehicle: acetone 101 % of control | [5] 97 % of control | [7] 93 % of control | dose: 100.0 mg/kg/injection, schedule: Q01DX009 (ip), vehicle: acetone 93 % of control | [6] 94 % of control | [8] 88 % of control | dose: 200.0 mg/kg/injection, schedule: Q04DX003 (ip), vehicle: saline 87 % of control

c1ccc2c3c(ccc2c1)CCC/C3=N\N=C1/CCCc2ccc3ccccc3c21
inactive: [9] 90 % of control | [10] 98 % of control | [11] 92 % of control

O=P(OCc1ccccc1)(OCc1ccccc1)C(Nc1ccccc1)c1ccccc1 (centres undefined)
inactive: dose: 50.0 mg/kg/injection, schedule: Q01DX009 (ip), vehicle: Klucel (hydroxypropylcellulose) (HPC) 100 % of control | [12] 103 % of control | [9] 100 % of control | [13] 103 % of control | [10] 94 % of control | [11] 93 % of control

O=[N+]([O-])c1ccccc1NC1c2ccccc2Oc2ccccc21
inactive: [9] 96 % of control | [10] 93 % of control | [11] 93 % of control

CC(=O)OCC1OC(n2ccc(=O)[nH]c2=O)C(OC(C)=O)C1OC(C)=O (centres undefined)
inactive: [7] 100 % of control | [8] 103 % of control | dose: 400.0 mg/kg/injection, schedule: Q01DX001 (ip), vehicle: saline 106 % of control

CC1(C)CCC(NC(=O)NCCF)CC1
inactive: dose: 9.5 mg/kg/injection, schedule: Q01DX001 (ip), vehicle: other 95 % of control | dose: 19.0 mg/kg/injection, schedule: Q01DX001 (ip), vehicle: other 102 % of control | dose: 38.0 mg/kg/injection, schedule: Q01DX001 (ip), vehicle: other 101 % of control

Cc1cccc(NC(=O)NCCCl)c1Cl
inactive: [12] 97 % of control | [9] 97 % of control | [13] 97 % of control | [10] 94 % of control | dose: 400.0 mg/kg/injection, schedule: Q01DX009 (ip), vehicle: Klucel (hydroxypropylcellulose) (HPC) 100 % of control | [11] 94 % of control

O=[N+]([O-])c1ccc(C2OC3CC4C5CCCC5C3C4O2)cc1 (centres undefined)
inactive: [4] 87 % of control | [1] 87 % of control | [2] 91 % of control | [3] 91 % of control

CC1C2CCC(C2)C(C)C1Br (centres undefined)
inactive: dose: 100.0 mg/kg/injection, schedule: Q01DX009 (ip), vehicle: other 99 % of control | dose: 100.0 mg/kg/injection, schedule: Q04DX003 (ip), vehicle: other 102 % of control | dose: 200.0 mg/kg/injection, schedule: Q01DX009 (ip), vehicle: other 96 % of control | dose: 200.0 mg/kg/injection, schedule: Q04DX003 (ip), vehicle: other 102 % of control | dose: 400.0 mg/kg/injection, schedule: Q01DX009 (ip), vehicle: other 96 % of control | dose: 400.0 mg/kg/injection, schedule: Q04DX003 (ip), vehicle: other 109 % of control

CC(C)=NNC(=O)c1ccc[n+](Cc2ccccc2)c1
inactive: dose: 75.0 mg/kg/injection, schedule: Q01DX001 (ip), vehicle: saline 102 % of control | dose: 150.0 mg/kg/injection, schedule: Q01DX001 (ip), vehicle: saline 98 % of control | dose: 300.0 mg/kg/injection, schedule: Q01DX001 (ip), vehicle: saline 105 % of control
